The target of data set [1] is Autotaxin (Homo sapiens, UniProt Q13822). The data set can be described thus: Biochemical assay: measurement of LPA (human).
In data set [2] the target is Serine/threonine-protein kinase Nek7 (Homo sapiens) (UniProt Q8TDX7). The conditions noted are these: Compound concentration 1000.0 nM.
For data set [3], the target named is Potassium voltage-gated channel subfamily V member 1 (Rattus norvegicus) (UniProt P97557). The data set can be described thus: K+/VOLT/RA Cerep selectivity data (BI). The conditions noted are these: Compound concentration 10.0 uM.
The target of data set [4] is Angiotensin-converting enzyme (Homo sapiens) (UniProt P12821). Kind of data set: ACE(HU_AMTCH400) Cerep selectivity data (BI). The conditions noted are these: Compound concentration 10.0 uM.
Data set [5] deals with Muscarinic acetylcholine receptor M1 (Homo sapiens) (UniProt P11229). Kind of data set: M1/H Cerep selectivity data (BI). As to conditions: Compound concentration 10.0 uM.
Chain of Muscarinic acetylcholine receptor M1 (Homo sapiens) (P11229 whole entry): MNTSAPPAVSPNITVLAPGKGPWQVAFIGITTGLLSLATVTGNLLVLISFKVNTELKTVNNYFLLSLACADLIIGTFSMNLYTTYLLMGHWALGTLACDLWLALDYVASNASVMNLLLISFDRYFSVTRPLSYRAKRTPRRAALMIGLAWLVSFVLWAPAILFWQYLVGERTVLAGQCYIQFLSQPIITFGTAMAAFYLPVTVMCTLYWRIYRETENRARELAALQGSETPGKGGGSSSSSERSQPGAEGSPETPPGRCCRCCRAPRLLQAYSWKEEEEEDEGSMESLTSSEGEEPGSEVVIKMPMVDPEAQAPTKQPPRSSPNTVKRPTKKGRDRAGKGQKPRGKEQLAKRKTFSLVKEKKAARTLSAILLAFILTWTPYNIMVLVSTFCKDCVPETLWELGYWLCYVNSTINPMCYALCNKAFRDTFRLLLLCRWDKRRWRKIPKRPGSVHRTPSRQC
Data set [6] deals with Kappa-type opioid receptor (Rattus norvegicus) (UniProt P34975). Kind of data set: KAPPA/R Cerep selectivity data (BI). As to conditions: Compound concentration 10.0 uM.
Data set [7] deals with hERG (KCNH2) (Homo sapiens, UniProt Q12809). The data set can be described thus: HERG_DOFETILIDE Cerep selectivity data (BI). As to conditions: probe [3H] Dofetilide, compound concentration 10 uM, read-out: % Ctrl. Also on record: mode of action inhibitor.
Data set [8] concerns the target Muscarinic acetylcholine receptor M3 (Homo sapiens) (UniProt P20309). The data set can be described thus: M3/H Cerep selectivity data (BI). The conditions noted are these: Compound concentration 10.0 uM.
Data set [9] addresses Sodium-dependent dopamine transporter (Homo sapiens) (UniProt Q01959). The data set can be described thus: DATRANS/HUM Cerep selectivity data (BI). As to conditions: Compound concentration 10.0 uM.
Data set [10] concerns the target 5-hydroxytryptamine receptor 2B (Homo sapiens) (UniProt P41595). The data set can be described thus: 5HT2B/H AG Cerep selectivity data (BI). The conditions noted are these: filed as agonist, Compound concentration 10.0 uM.
In data set [11] the target is Cannabinoid receptor 1 (Homo sapiens) (UniProt P21554). Kind of data set: CB1/CENTR/H Cerep selectivity data (BI). The conditions noted are these: Compound concentration 10.0 uM.
Data set [12] has as its target Cholecystokinin receptor type A (Homo sapiens) (UniProt P32238). The data set can be described thus: CCKA/H Cerep selectivity data (BI). As to conditions: Compound concentration 10.0 uM.
Data set [13] addresses D(1A) dopamine receptor (Homo sapiens) (UniProt P21728). Kind of data set: D1/H Cerep selectivity data (BI). As to conditions: filed as antagonist, Compound concentration 10.0 uM.
In data set [14] the target is Vasopressin V1a receptor (Homo sapiens) (UniProt P37288). The data set can be described thus: V1A/HUM Cerep selectivity data (BI). As to conditions: Compound concentration 10.0 uM.
Chain of Vasopressin V1a receptor (Homo sapiens) (P37288 whole entry, looked up): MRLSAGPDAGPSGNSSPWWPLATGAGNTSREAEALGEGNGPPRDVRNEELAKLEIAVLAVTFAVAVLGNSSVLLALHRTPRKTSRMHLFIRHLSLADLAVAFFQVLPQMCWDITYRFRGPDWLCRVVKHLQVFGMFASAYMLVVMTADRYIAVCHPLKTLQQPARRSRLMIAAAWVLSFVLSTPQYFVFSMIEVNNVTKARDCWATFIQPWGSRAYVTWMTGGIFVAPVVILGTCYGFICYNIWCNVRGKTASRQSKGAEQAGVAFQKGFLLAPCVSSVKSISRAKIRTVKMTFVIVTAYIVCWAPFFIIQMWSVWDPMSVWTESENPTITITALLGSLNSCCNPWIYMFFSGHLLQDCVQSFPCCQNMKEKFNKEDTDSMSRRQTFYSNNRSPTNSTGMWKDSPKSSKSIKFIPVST
Data set [15] addresses D(2) dopamine receptor (Homo sapiens) (UniProt P14416). As to conditions: Compound concentration 10.0 uM.
Data set [16] concerns the target Mu-type opioid receptor (Homo sapiens) (UniProt P35372). Kind of data set: MU/H Cerep selectivity data (BI). As to conditions: Compound concentration 10.0 uM.
Data set [17] has as its target Endothelin-1 receptor (Homo sapiens) (UniProt P25101). The data set can be described thus: ETA/H Cerep selectivity data (BI). The conditions noted are these: Compound concentration 10.0 uM.
Data set [18] has as its target D(2) dopamine receptor (Homo sapiens) (UniProt P14416). Kind of data set: D2SH_AGON Cerep selectivity data (BI). The conditions noted are these: filed as agonist, Compound concentration 10.0 uM.
In data set [19] the target is Histamine H1 receptor (Homo sapiens) (UniProt P35367). Kind of data set: H1/PYRIL/HS Cerep selectivity data (BI). The conditions noted are these: Compound concentration 10.0 uM.
Chain of Histamine H1 receptor (Homo sapiens) (P35367 whole entry): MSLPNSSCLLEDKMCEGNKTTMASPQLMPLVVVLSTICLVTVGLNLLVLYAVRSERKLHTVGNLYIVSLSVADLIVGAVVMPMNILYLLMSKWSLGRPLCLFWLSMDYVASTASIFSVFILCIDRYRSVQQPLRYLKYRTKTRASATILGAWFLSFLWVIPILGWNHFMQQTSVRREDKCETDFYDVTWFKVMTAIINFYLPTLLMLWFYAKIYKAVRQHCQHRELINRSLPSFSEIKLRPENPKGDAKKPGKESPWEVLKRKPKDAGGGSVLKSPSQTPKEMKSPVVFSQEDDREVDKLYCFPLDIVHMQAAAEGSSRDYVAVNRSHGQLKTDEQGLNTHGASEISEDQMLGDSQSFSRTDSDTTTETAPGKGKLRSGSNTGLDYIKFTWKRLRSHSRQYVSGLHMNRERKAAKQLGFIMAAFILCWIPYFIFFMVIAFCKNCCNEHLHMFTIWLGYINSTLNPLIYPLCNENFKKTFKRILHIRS
Data set [20] addresses Delta-type opioid receptor (Homo sapiens) (UniProt P41143). Kind of data set: DELTA2/H Cerep selectivity data (BI). The conditions noted are these: Compound concentration 10.0 uM.
In data set [21] the target is Glucocorticoid receptor (Homo sapiens) (UniProt P04150). Kind of data set: GCORTICOID/H Cerep selectivity data (BI). As to conditions: Compound concentration 10.0 uM.
Data set [22] has as its target Beta-2 adrenergic receptor (Homo sapiens) (UniProt P07550). Kind of data set: BETA2/HUM Cerep selectivity data (BI). The conditions noted are these: filed as antagonist, Compound concentration 10.0 uM.
Data set [23] addresses 5-hydroxytryptamine receptor 2A (Homo sapiens, UniProt P28223). The data set can be described thus: 5HT2AH_AGON Cerep selectivity data (BI). As to conditions: filed as agonist, Compound concentration 10.0 uM.
In data set [24] the target is Prostaglandin G/H synthase 2 (Homo sapiens) (UniProt P35354). The data set can be described thus: COX-2 Cerep selectivity data (BI). As to conditions: Compound concentration 10.0 uM.
For data set [25], the target named is Beta-1 adrenergic receptor (Homo sapiens) (UniProt P08588). The data set can be described thus: BETA1/HUM Cerep selectivity data (BI). The conditions noted are these: Compound concentration 10.0 uM.
Chain of Beta-1 adrenergic receptor (Homo sapiens) (P08588 whole entry, looked up): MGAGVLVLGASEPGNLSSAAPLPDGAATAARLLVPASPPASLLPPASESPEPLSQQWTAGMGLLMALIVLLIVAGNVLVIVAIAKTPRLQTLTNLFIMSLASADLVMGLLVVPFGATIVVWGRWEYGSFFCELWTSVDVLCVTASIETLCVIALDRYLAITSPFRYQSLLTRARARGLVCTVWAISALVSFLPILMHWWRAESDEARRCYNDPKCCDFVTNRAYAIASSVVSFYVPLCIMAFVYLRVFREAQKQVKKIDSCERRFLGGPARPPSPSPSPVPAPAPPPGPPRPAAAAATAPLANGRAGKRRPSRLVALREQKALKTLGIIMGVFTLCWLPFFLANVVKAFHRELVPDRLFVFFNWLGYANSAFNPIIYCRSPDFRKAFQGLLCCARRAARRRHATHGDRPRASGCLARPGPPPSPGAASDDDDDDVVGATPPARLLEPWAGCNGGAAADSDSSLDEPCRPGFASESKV
Data set [26] addresses Tyrosine-protein kinase Lck (Homo sapiens) (UniProt P06239). Kind of data set: LCK_CE Cerep selectivity data (BI). The conditions noted are these: Compound concentration 10.0 uM.
Data set [27] deals with L-type voltage-gated calcium channel (dihydropyridine site), Cav1.2 alpha-1C (Rattus norvegicus, UniProt P22002). The data set can be described thus: CA+/DHPSI/R Cerep selectivity data (BI). Also on record: mode of action inhibitor. The conditions noted are these: rat brain, probe [3H](+)PN200-110, compound concentration 10 uM, read-out: % Ctrl.
Data set [28] addresses Neuronal acetylcholine receptor; alpha4/beta2 (Homo sapiens) (UniProt P17787+P43681). The data set can be described thus: N_NEURO_A4B2 Cerep selectivity data (BI). Format: protein-complex assay. The conditions noted are these: filed as agonist, Compound concentration 10.0 uM.
Data set [29] concerns the target T1, 5-hydroxytryptamine receptor 1A (Homo sapiens) (UniProt P08908).
T1 sequence (whole entry): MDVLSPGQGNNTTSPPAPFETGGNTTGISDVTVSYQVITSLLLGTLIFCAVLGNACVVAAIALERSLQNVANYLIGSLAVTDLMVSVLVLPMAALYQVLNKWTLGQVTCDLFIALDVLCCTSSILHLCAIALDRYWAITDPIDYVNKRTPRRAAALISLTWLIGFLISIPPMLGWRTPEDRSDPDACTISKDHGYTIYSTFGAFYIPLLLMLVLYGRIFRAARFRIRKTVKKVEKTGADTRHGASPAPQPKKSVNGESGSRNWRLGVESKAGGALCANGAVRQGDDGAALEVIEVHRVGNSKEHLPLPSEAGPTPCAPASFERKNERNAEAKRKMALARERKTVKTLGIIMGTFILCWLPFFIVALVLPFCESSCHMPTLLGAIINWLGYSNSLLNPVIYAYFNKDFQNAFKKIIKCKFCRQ
The data set can be described thus: 5HT1A/H Cerep selectivity data (BI). As to conditions: Compound concentration 10.0 uM.

The target in data set [30] is Gamma-aminobutyric acid receptor subunit alpha-1 (Rattus norvegicus) (UniProt P62813). Kind of data set: BZD/CENTR/R Cerep selectivity data (BI). As to conditions: Compound concentration 10.0 uM.
In data set [31] the target is T2, Alpha-1A adrenergic receptor (Homo sapiens) (UniProt P35348).
T2 sequence (whole entry): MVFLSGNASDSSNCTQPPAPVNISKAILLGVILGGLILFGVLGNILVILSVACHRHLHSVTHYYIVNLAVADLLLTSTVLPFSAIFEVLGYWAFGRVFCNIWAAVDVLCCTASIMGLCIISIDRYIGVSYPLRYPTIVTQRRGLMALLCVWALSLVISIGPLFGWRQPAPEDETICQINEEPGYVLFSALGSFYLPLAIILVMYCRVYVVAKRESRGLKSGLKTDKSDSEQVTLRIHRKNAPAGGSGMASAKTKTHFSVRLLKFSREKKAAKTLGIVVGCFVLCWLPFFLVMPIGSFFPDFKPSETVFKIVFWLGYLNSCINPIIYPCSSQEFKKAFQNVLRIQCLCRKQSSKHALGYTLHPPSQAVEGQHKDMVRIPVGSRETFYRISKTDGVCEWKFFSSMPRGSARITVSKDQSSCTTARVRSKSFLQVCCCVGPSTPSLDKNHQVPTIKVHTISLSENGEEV
The data set can be described thus: ALPHA1AH_ANTAG Cerep selectivity data (BI). The conditions noted are these: filed as antagonist, Compound concentration 10.0 uM.

Data set [32] has as its target MAO-A (amine oxidase [flavin-containing] A) (Rattus norvegicus, UniProt P21396). The data set can be described thus: MAO-A_ANTAG Cerep selectivity data (BI). Also on record: mode of action antagonist; scale not given: the % may be the effect or the level left. As to conditions: compound concentration 10 uM, read-out: % Ctrl.
For data set [33], the target named is 3',5'-cyclic-AMP phosphodiesterase 4D (Homo sapiens) (UniProt Q08499). The data set can be described thus: PDE4D2 Cerep selectivity data (BI). The conditions noted are these: Compound concentration 10.0 uM.

Active and inactive are the calls of the source. The rule behind the calls is not given here.

Chain of D(2) dopamine receptor (Homo sapiens) (P14416 whole entry): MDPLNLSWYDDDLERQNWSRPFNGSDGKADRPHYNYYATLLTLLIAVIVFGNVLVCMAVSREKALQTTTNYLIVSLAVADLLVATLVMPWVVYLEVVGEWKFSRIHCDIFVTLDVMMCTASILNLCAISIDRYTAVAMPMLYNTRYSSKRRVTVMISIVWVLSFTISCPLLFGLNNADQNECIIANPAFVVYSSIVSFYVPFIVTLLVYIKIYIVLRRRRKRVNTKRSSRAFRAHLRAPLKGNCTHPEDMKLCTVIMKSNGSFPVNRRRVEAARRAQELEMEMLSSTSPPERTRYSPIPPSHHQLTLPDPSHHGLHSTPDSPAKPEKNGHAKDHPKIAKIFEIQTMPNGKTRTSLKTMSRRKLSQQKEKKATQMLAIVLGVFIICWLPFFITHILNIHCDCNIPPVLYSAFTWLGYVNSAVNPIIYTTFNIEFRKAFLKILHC
Chain of Serine/threonine-protein kinase Nek7 (Homo sapiens) (Q8TDX7 whole entry, looked up): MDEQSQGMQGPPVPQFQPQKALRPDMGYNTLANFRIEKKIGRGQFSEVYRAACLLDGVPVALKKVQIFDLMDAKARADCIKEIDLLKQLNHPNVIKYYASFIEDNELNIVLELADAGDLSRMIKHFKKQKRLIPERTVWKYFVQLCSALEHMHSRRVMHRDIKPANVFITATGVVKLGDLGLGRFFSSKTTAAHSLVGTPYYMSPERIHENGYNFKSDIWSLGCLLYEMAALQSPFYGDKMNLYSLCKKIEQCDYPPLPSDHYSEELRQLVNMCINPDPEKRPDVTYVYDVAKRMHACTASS
Chain of Muscarinic acetylcholine receptor M3 (Homo sapiens) (P20309 whole entry, looked up): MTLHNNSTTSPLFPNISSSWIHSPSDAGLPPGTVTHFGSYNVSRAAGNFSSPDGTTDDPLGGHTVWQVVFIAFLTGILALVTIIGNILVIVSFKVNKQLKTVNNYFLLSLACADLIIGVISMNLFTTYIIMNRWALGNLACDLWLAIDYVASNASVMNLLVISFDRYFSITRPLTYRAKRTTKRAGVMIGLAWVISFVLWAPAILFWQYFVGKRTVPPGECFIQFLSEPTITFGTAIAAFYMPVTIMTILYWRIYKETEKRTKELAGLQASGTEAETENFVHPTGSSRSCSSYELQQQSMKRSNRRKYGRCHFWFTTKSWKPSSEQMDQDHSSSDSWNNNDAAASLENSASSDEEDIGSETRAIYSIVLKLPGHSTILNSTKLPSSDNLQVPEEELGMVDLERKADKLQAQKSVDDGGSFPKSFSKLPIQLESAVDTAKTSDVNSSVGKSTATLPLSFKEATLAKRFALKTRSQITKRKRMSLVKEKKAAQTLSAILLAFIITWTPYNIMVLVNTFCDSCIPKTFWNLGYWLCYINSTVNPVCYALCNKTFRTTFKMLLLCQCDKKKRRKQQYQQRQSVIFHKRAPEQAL
Chain of Cholecystokinin receptor type A (Homo sapiens) (P32238 whole entry): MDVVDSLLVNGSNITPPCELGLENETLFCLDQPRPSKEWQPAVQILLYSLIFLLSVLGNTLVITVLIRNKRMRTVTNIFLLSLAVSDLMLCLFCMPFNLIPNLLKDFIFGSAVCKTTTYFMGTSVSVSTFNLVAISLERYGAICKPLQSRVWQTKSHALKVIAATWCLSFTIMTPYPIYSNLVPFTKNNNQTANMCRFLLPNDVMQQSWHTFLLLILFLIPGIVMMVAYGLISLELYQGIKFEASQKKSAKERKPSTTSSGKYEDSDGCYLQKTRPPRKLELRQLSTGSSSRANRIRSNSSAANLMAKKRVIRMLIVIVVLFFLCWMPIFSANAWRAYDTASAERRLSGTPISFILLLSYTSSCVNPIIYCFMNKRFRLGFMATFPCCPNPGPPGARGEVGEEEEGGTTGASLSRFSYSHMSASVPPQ
Chain of Mu-type opioid receptor (Homo sapiens) (P35372 whole entry): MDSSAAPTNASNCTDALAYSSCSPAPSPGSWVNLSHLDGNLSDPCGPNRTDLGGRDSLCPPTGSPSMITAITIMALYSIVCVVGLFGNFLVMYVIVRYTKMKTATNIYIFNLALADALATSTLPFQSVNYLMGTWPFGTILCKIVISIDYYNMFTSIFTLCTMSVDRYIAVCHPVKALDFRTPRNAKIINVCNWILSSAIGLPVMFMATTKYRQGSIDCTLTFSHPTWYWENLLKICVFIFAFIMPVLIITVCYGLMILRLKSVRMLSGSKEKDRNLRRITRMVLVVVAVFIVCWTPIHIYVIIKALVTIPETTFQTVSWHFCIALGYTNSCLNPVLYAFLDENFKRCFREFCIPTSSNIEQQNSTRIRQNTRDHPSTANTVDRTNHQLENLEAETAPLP
Chain of Endothelin-1 receptor (Homo sapiens) (P25101 whole entry): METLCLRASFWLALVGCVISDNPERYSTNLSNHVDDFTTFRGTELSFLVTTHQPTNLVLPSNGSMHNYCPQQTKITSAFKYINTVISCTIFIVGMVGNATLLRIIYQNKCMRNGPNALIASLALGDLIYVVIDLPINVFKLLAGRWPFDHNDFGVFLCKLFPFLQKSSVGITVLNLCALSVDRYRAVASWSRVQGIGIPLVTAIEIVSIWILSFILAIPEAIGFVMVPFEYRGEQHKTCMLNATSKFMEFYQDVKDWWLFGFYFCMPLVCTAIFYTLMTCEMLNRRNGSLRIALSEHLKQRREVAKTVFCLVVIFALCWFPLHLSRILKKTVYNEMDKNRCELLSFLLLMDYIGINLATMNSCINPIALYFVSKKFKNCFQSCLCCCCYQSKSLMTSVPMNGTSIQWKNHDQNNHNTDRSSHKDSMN
Chain of Beta-2 adrenergic receptor (Homo sapiens) (P07550 whole entry, looked up): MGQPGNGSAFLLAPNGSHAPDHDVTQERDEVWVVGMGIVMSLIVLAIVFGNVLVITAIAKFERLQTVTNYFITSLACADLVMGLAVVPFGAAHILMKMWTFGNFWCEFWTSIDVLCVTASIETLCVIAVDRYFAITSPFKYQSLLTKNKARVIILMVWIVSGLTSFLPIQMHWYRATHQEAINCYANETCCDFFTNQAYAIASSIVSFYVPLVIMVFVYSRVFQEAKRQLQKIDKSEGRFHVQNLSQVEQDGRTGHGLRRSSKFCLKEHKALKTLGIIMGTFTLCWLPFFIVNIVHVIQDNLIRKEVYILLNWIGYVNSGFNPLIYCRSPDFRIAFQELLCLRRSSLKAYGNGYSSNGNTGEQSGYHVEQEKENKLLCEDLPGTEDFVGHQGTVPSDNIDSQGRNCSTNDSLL

Regarding `Cc1nccc(COC(=O)N2C[C@@H]3[C@@H](CNC(=O)c4ccc5[nH]nnc5c4)[C@@H]3C2)n1` [BI 3017], the IC50 (in general, the point on the concentration scale where inhibition reaches its midpoint) in data set [1] is 8.9 µM (not active). Also, the residual activity in [2] is 100%.
With `O=C(NC[C@@H]1[C@H]2CN(C(=O)OCc3cc(C(F)(F)F)cc(C(F)(F)F)c3)C[C@@H]12)c1ccc2[nH]nnc2c1` [BI 2545], the residual activity in [3] is 103%; in [4], 109%; in data set [5], 97%; in [6], 68%; in data set [8], 100%; in [9], 57%. The residual activity in data set [10] was 54%; in [11], 95%; in [12], 51%; in [13], 92%; in data set [14], 80%; in data set [16] it was 67%. For the same molecule, the residual activity in data set [17] was 92%; in [18], 97%; in data set [19], 101%; in data set [20], 82%; in data set [21], 99%; in data set [22], 96%. Also, the residual activity in data set [23] is 45%; in data set [24], 81%; in data set [25] it was 98%; in data set [26] it was 96%; in [2], 83%; in [28] it was 111%. The residual activity is 83% in [29], 136% in data set [30], 87% in [31] and 98% in [33]. For the same molecule, the activity at 10 µM is 71% (not active) in data set [7], 20% (active) in data set [27] and 70% (not active) in data set [32]. For the same molecule, the inhibition (commonly the percentage by which the read-out fell short of the control) in data set [15] is 7.71%.

Source of the values: ChEMBL document CHEMBL4507275, “Data for DCP probe BI-2545” (2021).
